From US9540328B2, “(−)-(2R,3S)-2-amino-3-hydroxy-3-pyridin-4-yl-1-pyrrolidin-1-yl-propan-1-one (L)-(+) tartrate salt, its method of production and use” (Allergan, Inc., priority 2013, dated 2017) come the findings set out here.

Common to all, as to assay type: physicochemical
Data set [1] is described as follows: Salt form optimization study: hygroscopicity / deliquescence of salts. From the text: In another salt from optimization study for the dibasic drug molecule (+/−)-erythro-2-amino-3-hydroxy-3-pyridin-4-yl-1-pyrrolidin-1-yl-propan-1-one, the dihydrochloride was the first salt prepared and characterized. […] The following counterions were used: sulfuric acid, 1-hydroxy-2-naphthoic acid, methanesulfonic acid, naphthalene-2-sulfonic acid, benzenesulfonic acid, (L-) glutamic acid, malonic acid, citric acid, (−)-L-malic acid, lactic acid, ascorbic acid, and acetic acid. Of these the pursuance of mono-acetate, the naphthalene-2-sulfonate and the 1-hydroxy-2-naphthoate salts were recommended. […] The latter salt also represented a large counterion compared to the base and, especially at high doses, this was perceived as a definite disadvantage.

A short description of data set [2]: TG-FTIR thermal decomposition.
Data set [3] in a line: Dynamic Vapor Sorption (DVS).
Data set [4] is described as follows: Differential Scanning Calorimetry (DSC) degradation. A general note: In DSC, transitions show as peaks or steps in heat flow.
Where [5] appears, read: sample of FIG. 11 (crystalline salt).

Where a name gives a salt, the structure may show the parent alone.

Take `N[C@@H](C(=O)N1CCCC1)[C@@H](O)c1ccncc1` (racemic) [acetate salt, (+/−)-erythro-2-amino-3-hydroxy-3-pyridin-4-yl-1-pyrrolidin-1-yl-propan-1-one]: in data set [1], the “relative humidity at which the salt deliquesced” value is 51 % RH.
For the molecule `N[C@@H](C(=O)N1CCCC1)[C@@H](O)c1ccncc1.O=C(O)C(O)C(O)C(=O)O` [(−)-(2R,3S)-2-amino-3-hydroxy-3-pyridin-4-yl-1-pyrrolidin-1-yl-propan-1-one (L)-(+) tartrate], the degradation temperature result was “above 160 °C” in data set [2] (amorphous sample, FIG. 15) and “above 118 °C” in data set [4] (DSC, amorphous sample, FIG. 16). The decomposition temperature entry in data set [2] (sample of FIG. 9 (crystalline salt)) is “above 160 °C”. The hygroscopicity entry in data set [3] (amorphous sample, FIG. 17) was “very hygroscopic”; in data set [3] (setting [5]), “very hygroscopic”. The deliquescence entry was “deliquescent” in data set [3] (amorphous sample, FIG. 17, visually confirmed) and “deliquescent” in data set [3] (sample of FIG. 11 (crystalline salt), visually confirmed). The “relative humidity above which water uptake occurs” value in data set [3] (setting [5]) was “above 80 % r.h”. Moreover, in data set [4] (DSC first scan, sample of FIG. 10 (crystalline salt)), the “overlapping melting and degradation temperature” value was around 160 °C.
Regarding `N[C@@H](C(=O)N1CCCC1)[C@@H](O)c1ccncc1` (racemic) [dihydrochloride, (+/−)-erythro-2-amino-3-hydroxy-3-pyridin-4-yl-1-pyrrolidin-1-yl-propan-1-one], in data set [1], the hygroscopicity entry is recorded as “hygroscopic”.
